Tests used:
NK-YS (IL-2 2.5 ng/mL) [1] = test: drug sensitivity score (DSS) (DSS units); higher = more sensitive; extreme values may be limits of the assay; details: 72 h
SNK-6 (IL-2 2.5 ng/mL) [2] = test: as above; details: 72 h
NK-92 (IL-2 2.5 ng/mL) [3] = test: as above; details: 72 h
NKL (IL-2 2.5 ng/mL) [4] = test: as above; details: 72 h
DERL-7 (IL-2 2.5 ng/mL) [5] = test: as above; details: 72 h
IMC-1 (IL-2 20 ng/mL) [6] = test: as above; details: 72 h
[7] = tested on: normal primary NK cells, pool 3 (3 donors) (IL-2 2.5 ng/mL); test: as above; details: 72 h
KAI3 (IL-2 2.5 ng/mL) [8] = test: as above; details: 72 h
[9] = tested on: normal primary NK cells, pool 1 (3 donors), resting (IL-2 0 ng/mL); test: as above; details: 72 h
[10] = tested on: normal primary NK cells, pool 2 (3 donors) (IL-2 2.5 ng/mL); test: as above; details: 72 h
[11] = tested on: normal primary NK cells, pool 1 (3 donors) (IL-2 2.5 ng/mL); test: as above; details: 72 h
KHYG-1 (IL-2 2.5 ng/mL) [12] = test: as above; details: 72 h
YT (IL-2 2.5 ng/mL) [13] = test: as above; details: 72 h
[14] = tested on: normal NK cells expanded with K562-aAPC; test: as above; details: 72 h; IL-2 2.5 ng/mL
Protocol: (§1)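 Drug sensitivity and resistance testing on K562-aAPC-expanded normal NK cells: 5 concentrations (10-fold steps over a 10,000-fold range), 72 h at 37 °C, viability by CellTiter-Glo normalised to DMSO and benzethonium chloride controls; DSS from the fitted curve.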

[15] = tested on: normal NK cells expanded with K562-aAPC; test: percent inhibition of viability; higher = more inhibition; details: 72 h, IL-2 2.5 ng/mL
Protocol: as §1

NK-YS (IL-2 2.5 ng/mL) [16] = test: as above; details: 72 h
SNK-6 (IL-2 2.5 ng/mL) [17] = test: as above; details: 72 h
NK-92 (IL-2 2.5 ng/mL) [18] = test: as above; details: 72 h
NKL (IL-2 2.5 ng/mL) [19] = test: as above; details: 72 h
DERL-7 (IL-2 2.5 ng/mL) [20] = test: as above; details: 72 h
IMC-1 (IL-2 20 ng/mL) [21] = test: as above; details: 72 h
[22] = tested on: normal primary NK cells, pool 3 (3 donors) (IL-2 2.5 ng/mL); test: as above; details: 72 h
KAI3 (IL-2 2.5 ng/mL) [23] = test: as above; details: 72 h
[24] = tested on: normal primary NK cells, pool 1 (3 donors), resting (IL-2 0 ng/mL); test: as above; details: 72 h
[25] = tested on: normal primary NK cells, pool 2 (3 donors) (IL-2 2.5 ng/mL); test: as above; details: 72 h
[26] = tested on: normal primary NK cells, pool 1 (3 donors) (IL-2 2.5 ng/mL); test: as above; details: 72 h
KHYG-1 (IL-2 2.5 ng/mL) [27] = test: as above; details: 72 h
YT (IL-2 2.5 ng/mL) [28] = test: as above; details: 72 h

CCn1c(C(=O)N(C2CC2)C2CC2)cc2c3c(ncn3C)c(Nc3cc(C)n(C)n3)nc21 (max concentration tested 10000 nM)
Details	drug sensitivity score
DERL-7 (IL-2 2.5 ng/mL) [5]	4.87
IMC-1 (IL-2 20 ng/mL) [6]	0
KAI3 (IL-2 2.5 ng/mL) [8]	14.5
KHYG-1 (IL-2 2.5 ng/mL) [12]	5.93
NK-92 (IL-2 2.5 ng/mL) [3]	4.85
NK-YS (IL-2 2.5 ng/mL) [1]	3.29
NKL (IL-2 2.5 ng/mL) [4]	8.84
SNK-6 (IL-2 2.5 ng/mL) [2]	0
YT (IL-2 2.5 ng/mL) [13]	4.02
[7]	2.38
[9]	0
[10]	3.12
[11]	3.85
[14]	5.99

percent inhibition of viability [%]
Details	1 nM	10 nM	100 nM	1000 nM	10000 nM
DERL-7 (IL-2 2.5 ng/mL) [20]	0.43	0.75	1.97	12.3	54.1
IMC-1 (IL-2 20 ng/mL) [21]	-1.17	2.69	0.12	-11.6	-7.89
KAI3 (IL-2 2.5 ng/mL) [23]	14.1	21.2	27.8	44.8	76.3
KHYG-1 (IL-2 2.5 ng/mL) [27]	4.48	5.02	4.17	12.6	69.7
NK-92 (IL-2 2.5 ng/mL) [18]	4.07	7.86	-2	9.2	60.7
NK-YS (IL-2 2.5 ng/mL) [16]	4.8	6.33	4.46	16.1	36.6
NKL (IL-2 2.5 ng/mL) [19]	0.96	-1.04	3.26	41.2	70.4
SNK-6 (IL-2 2.5 ng/mL) [17]	-4.81	22.8	-3.45	-16.6	7.74
YT (IL-2 2.5 ng/mL) [28]	9.25	9.54	7.25	14.5	46.5
[15]	5.29	4.9	4.54	16	63.8
[22]	5.51	-1.86	3.33	6.54	30.7
[24]	-6.63	-4.84	-10.8	4.13	5.86
[25]	-2.38	-1.43	0.57	3.6	49
[26]	-3.85	-1.69	-6.9	11.7	41.6

O=C(O)c1ccc(-c2c[nH]c3ncc(-c4ccccc4)cc23)cc1C1CCCC1 (max concentration tested 10000 nM)
Details	drug sensitivity score
DERL-7 (IL-2 2.5 ng/mL) [5]	4.22
IMC-1 (IL-2 20 ng/mL) [6]	4.18
KAI3 (IL-2 2.5 ng/mL) [8]	8.09
KHYG-1 (IL-2 2.5 ng/mL) [12]	8.41
NK-92 (IL-2 2.5 ng/mL) [3]	4.5
NK-YS (IL-2 2.5 ng/mL) [1]	4.89
NKL (IL-2 2.5 ng/mL) [4]	7.3
SNK-6 (IL-2 2.5 ng/mL) [2]	0
YT (IL-2 2.5 ng/mL) [13]	3.73
[7]	1.43
[9]	3.47
[10]	3.48
[11]	3.22
[14]	6.12

percent inhibition of viability [%]
Details	1 nM	10 nM	100 nM	1000 nM	10000 nM
DERL-7 (IL-2 2.5 ng/mL) [20]	-9.96	-1.92	-0.6	3.14	69
IMC-1 (IL-2 20 ng/mL) [21]	-3.86	-6.5	-2.05	1.32	72.7
KAI3 (IL-2 2.5 ng/mL) [23]	14.8	11.5	12.9	31	53.1
KHYG-1 (IL-2 2.5 ng/mL) [27]	1.54	-1.17	6.23	24.4	87.8
NK-92 (IL-2 2.5 ng/mL) [18]	-7.79	-6.02	-14.8	6.45	63.1
NK-YS (IL-2 2.5 ng/mL) [16]	3.9	-4.11	6.44	17.4	53.2
NKL (IL-2 2.5 ng/mL) [19]	-3	3.11	11.4	27.3	76.9
SNK-6 (IL-2 2.5 ng/mL) [17]	2.78	-21.4	-20.9	-24.3	-8.86
YT (IL-2 2.5 ng/mL) [28]	3.57	-0.35	6.38	10.9	43.5
[15]	0.69	-1.15	0.93	14.6	68.6
[22]	2.83	5.65	10	2.66	25.9
[24]	-0.46	4.28	6.33	11.9	41.2
[25]	-5.78	-5.79	-4.92	6.53	46
[26]	-4.88	9.93	9.09	13.8	33.7
